The test system of series [1] is rat mixed hippocampal cultures. Kind of series: Titration of 3-NP for neurotoxic effects, MTT viability. The settings on record: 3 mM 3-NP, 18 hours. The series is classed as cell-based. As to the method: FIG. 3 is a bar graph showing the effect of a series of 3-nitropropionic acid (3-NP) concentrations (0.5-10 mM) on survival of mixed hippocampal cell cultures in a [3-(4,5-dimethylthiazol-2-yl)-2,5-diphenyl tetrazolium bromide] (MTT) viability assay. Absorbance at 595 nm (corresponding to the absorbance of the reduced MTT formazan product) is directly proportional to cell viability.

The subject of series [2] is rat mixed hippocampal cultures. Kind of series: 3-NP neurotoxicity assay, MTT viability, rat mixed hippocampal cultures. Format: cell-based. Particulars: for inhibition at 10 µM: Rattus norvegicus; for protection against 3-NP (FIG. 5): approximate values; for protection from oxidative damage elicited by 3-NP, in words (FIG. 4A): GPI 1046 1 μM, Resveratrol 25 μM. How it is done: For example, a cell viability assay can be used in a preliminary screen on a large series of compounds each of which is tested at a fixed concentration. In some embodiments, mixed hippocampal cell cultures are prepared as described in, e.g., Haughey et al. (1999), J Neurochem, 73(4):1363-1374, and Haughey et al (2004), J Neurosci, 24(1):257-268. Subsequently, the cultures are pretreated for one hour in the presence of a candidate neuroprotective agent and then incubated with a cytotoxic agent for about 18 hours. Examples of cytotoxic agents include, but are not limited to, oxidative stressors (e.g., 3-nitropropionic acid (3-NP) or H2O2), excitatory amino acids (e.g., kainate), or neurotoxic proteins (e.g., Hiv Tat, or Aβ peptides). […] The level of protection (“percent protection”) provided by the test compound at a given test concentration in vitro can be expressed as: […]
A variety of methods for determining cell viability may be used. In some embodiments, cell viability is assessed based on the “MTT” assay method described in Mosmann (1983), J Immunol Methods, 65(1-2):55-63, or a variant thereof. This assay is based on the ability of a mitochondrial dehydrogenase enzyme from viable cells to cleave the tetrazolium rings of the pale yellow MTT and form dark blue formazan crystals, which are trapped in cells and readily quantified by ELISA spectrophotometry.
(§1) We sought to evaluate the protective efficacy of a number of modified terpenoid compounds against the against many different neurotoxins, ranging from the chemotoxic 6-OHDA, NMDA, 3-nitropropionic acid (3-NP), and viral proteins such as Tat and gp120. Thus, we established an in vitro neuroprotection assay using rat mixed hippocampal cultures, in which we evaluated the protective efficacy of neuroprotective compounds disclosed herein. The oxidative stressor 3-NP was used to elicit toxicity in the rat hippocampal cultures to mimic the oxidative damage, reactive oxygen species production and ensuing neurodegeneration resulting from HIV infection. Another measure of neurotoxicity which results from HIV infection was evaluated by exposure of the hippocampal cultures to HIV-1 Tat (Li et al (2005), Neurotox Res, 8(1-2): 119-134).
(§2) Rat mixed hippocamal neuronal cultures were generated from freshly dissected rat hippocampi (embryonic day 18) in neurobasal media containing 5% fetal bovine serum and 2% B27 supplement. The cells were plated into 96 well plates at a density of 4×10^5 cells/mL and routinely used on days 11-14 following culturing. Cell viability was assessed with MTT [3-(4,5-dimethylthiazol-2-yl)-2,5-diphenyltetrazolium bromide] assay. The MTT assay is based on the ability of a mitochondrial dehydrogenase enzyme from viable cells to cleave the tetrazolium rings of the pale yellow MTT and form dark blue formazan crystals. See Mosmann (1983), J Immunol Methods, 65(1-2):55-63. These crystals are largely impermeable to cell membranes, and thus accumulate within healthy cells. The resultant formazan precipitates are solubilized with DMSO and read on a multiwell scanning spectrophotometer (ELISA reader). The number of surviving cells is directly proportional to the level of the formazan product created.
Mixed hippocampal cultures were incubated with 3-NP (0.5-10 mM) for 18 hours and then assessed for viability using an MTT assay.
(§3) Cultures were preincubated with GPI 1046 or Resveratrol for one hour prior to an 18 hour exposure to 3 mM 3-NP. […] The same neuroprotective compounds were evaluated for efficacy against HIV-1 Tat protein toxicity using the same 1 hour preincubation protocol.

In series [3] the test system is hippocampal cultures (HIV-1 Tat toxicity). Nature of the series: HIV-1 Tat toxicity assay, MTT viability, mixed hippocampal cultures. The series is classed as cell-based, rat. Particulars: Tat 500 nM; for protection from HIV-1 Tat toxicity, in words (FIG. 4B): 1 h preincubation, GPI 1046 10 μM, Resveratrol 10 μM.
Text: as §1, §2, §3

[4] abbreviates: Table 2, vs 3 mM 3-NP 18 h, 1 h preincubation, test concentration (10 μM).
[5] abbreviates: Table 2, vs 3 mM 3-NP 18 h, 1 h preincubation, test concentration (10 μM), read-out: % Protection.
Where [6] appears, read: Table 3, 3 mM 3-NP 18 h, 1 h preincubation, test concentration (10 μM), read-out: % Protection vs 3-NP.
Setting [7] is: Table 3, 3 mM 3-NP 18 h, 1 h preincubation, test concentration (10 μM).
[8] abbreviates: 3 mM 3-NP 18 h, 1 h preincubation.

Like-named read-outs stand apart in the source and are kept apart here.

With `O=C(O)CC[N+](=O)[O-]` [Compound 3-NP, 3-nitropropionic acid], the cytotoxicity induced in series [1] is given as 25-35%. Regarding `CC(=O)OC1CC2C(C)(C)CCC[C@]2(C)C2CC[C@]3(C)C(=CC(=O)O[C@H]3c3ccoc3)[C@]12C` (stereo partly shown) [DEOXODEOXYDIHYDRO- GEDUNIN, DEOXODEOXYDIHYDROGEDUNIN], the “% Protection” value in series [2] (setting [4]) turned out to be 77%.

As for `CC(=O)O[C@@H]1CC2C(C)(C)CCC[C@]2(C)C2CC[C@@]3(C)[C@H](c4ccoc4)OC(=O)C4OC43[C@@]21C` (stereo partly shown) [DEOXODIHYDROGEDUNIN], the inhibition at 10 µM in series [2] (setting [5]) came out at 101%. As for `CC(=O)O[C@@H]1CC2C(C)(C)C(=O)C=C[C@]2(C)C2CC[C@@]3(C)C(=CC(=O)O[C@@H]3c3ccoc3)[C@@]21C` (stereo partly shown) [DEOXYGEDUNIN], the inhibition at 10 µM in series [2] (setting [6]) is 23%. For the same compound, in series [2] (setting [4]), the “% Protection” value is listed as 23%. In the case of `CC(=O)OC1C=C[C@@]2(C)C(C[C@@H](OC(C)=O)[C@@]3(C)C4=CC(=O)O[C@@H](c5ccoc5)[C@]4(C)CCC23)C1(C)C` (stereo partly shown) [DEOXYGEDUNOL ACETATE], the inhibition at 10 µM in series [2] (setting [5]) stood at 54%. For `CC(=O)OC1CC2C(C)(C)[C@H](OC(C)=O)C[C@H](OC(C)=O)[C@]2(C)C2CC[C@]3(C)C(=CC(=O)O[C@@H]3c3ccoc3)[C@]12C` (stereo partly shown) [DEOXYKHIVORIN], the inhibition at 10 µM in series [2] (setting [5]) and in series [2] (setting [6]) was 36% in each case. Turning to `COC(=O)[C@@H]1OC(=O)C2OC23[C@@]1(C)CCC1[C@]2(C)C(C[C@@H](O)[C@]13C)C(C)(C)[C@H](OC(C)=O)C[C@@H]2OC(C)=O` (stereo partly shown) [DESACETYL (7)KHIVORINIC ACID, METHYL ESTER], the “% Protection” value in series [2] (setting [4]) stood at 58%. In the case of `COC(=O)C[C@H]1C(C)(C)[C@@H](OC(C)=O)[C@@H]2CC3C4CC(=O)O[C@@H](c5ccoc5)[C@]4(C)CCC3[C@@]1(C)C2=O` (stereo partly shown) [DIHYDROFISSINOLIDE], the inhibition at 10 µM in series [2] (setting [6]) stood at 12%. With `CC(=O)O[C@@H]1CC2C(C)(C)C3(CC[C@]2(C)C2CC[C@@]4(C)[C@H](c5ccoc5)OC(=O)C5OC54[C@@]21C)SCCS3` (stereo partly shown) [DIHYDROGEDUNIN ETHANEDITHIOKETAL], the “% Protection” value in series [2] (setting [4]) amounted to 19%.

For `CC(=O)O[C@@H]1CC2C(C)(C)C(=O)CC[C@]2(C)C2CC[C@@]3(C)[C@@H](c4ccoc4)OC(=O)C4OC43[C@@]21C` (stereo partly shown) [DIHYDROGEDUNIN], the inhibition at 10 µM in series [2] (setting [5]) worked out at 28%. For `CCC(C)C(=O)O[C@@H]1C[C@@]2(C)[C@H](c3ccoc3)OC(=O)CC23OC2(C)OC34[C@H](OC(=O)C(C)C)[C@@]3(O)[C@@H](OC(=O)C5(C)OC5C)[C@@]5(C)C[C@]3(O)[C@@](C)([C@H]5CC(=O)OC)C14O2` (stereo partly shown) [ENTANDROPHRAGMIN], in series [2] (setting [7]), the “% Protection vs 3-NP” value is 18%. As for `CC(=O)O[C@@H]1CC2C(C)(C)C(=O)C3OC3[C@]2(C)C2CC[C@@]3(C)[C@H](c4ccoc4)OC(=O)C4OC43[C@@]21C` (stereo partly shown) [EPOXYGEDUNIN], the “% Protection” value in series [2] (setting [4]) is reported as 69%. As to `COC(=O)C[C@H]1C(C)(C)[C@@H](OC(C)=O)[C@@H]2CC3=C4CC(=O)O[C@@H](c5ccoc5)[C@]4(C)CC[C@@H]3[C@@]1(C)C2=O` [FISSINOLIDE], in series [2] (setting [6]), the inhibition at 10 µM was 28%.

For `CC(=O)O[C@@H]1CC2C(C)(C)C(=O)C=C[C@]2(C)C2CC[C@@]3(C)[C@H](c4ccoc4)OC(=O)[C@H]4O[C@]43[C@@]21C` (stereo partly shown) [GEDUNIN], the “neuroprotection from HIV-1 Tat toxicity, in words” value in series [3] (1-10 μM compound) is “nearly complete neuroprotection”. Further, the “dose dependence of protection from HIV-1 Tat toxicity (FIG. 7)” value in series [3] (range of concentrations up to 10 μM) was “dose dependently protected”. Further, the “protection against 3-NP (FIG. 5)” value in series [2] (3 mM 3-NP) is reported as “about 50%”. The inhibition at 10 µM in series [2] (setting [5]) was 40%. `CC(=O)O[C@@H]1CC2C(C)(C)[C@H](O)C=C[C@]2(C)C2CC[C@@]3(C)[C@H](c4ccoc4)OC(=O)C4OC43[C@@]21C` (stereo partly shown) [GEDUNOL]: the “% Protection” value in series [2] (setting [4]) amounted to 45%. For `CCC(C)(C)C(=O)C(=O)N1CCC[C@H]1C(=O)OCCCc1cccnc1` [GPI 1046, reference compound], in series [3], the “protection from HIV-1 Tat toxicity, in words (FIG. 4B)” value is “protected hippocampal neurons from Tat toxicity”. The “protection from oxidative damage elicited by 3-NP, in words (FIG. 4A)” value in series [2] (setting [8]) is reported as “significantly protected”. For `CC(=O)O[C@@H]1CC2C(C)(C)C=CC(=O)[C@]2(C)C2CC[C@@]3(C)[C@H](c4ccoc4)OC(=O)C4OC43[C@@]21C` (stereo partly shown) [ISOGEDUNIN], the inhibition at 10 µM in series [2] (setting [5]) was 50%. With `CC(=O)OC1C[C@H](OC(C)=O)[C@@]2(C)C(C[C@@H](OC(C)=O)[C@]3(C)C2CC[C@@]2(C)[C@H](c4ccoc4)OC(=O)[C@H]4O[C@]423)C1(C)C` (stereo partly shown) [KHIVORIN], in series [2] (3 mM 3-NP, 10 μM of Khivorin), the “protection against 3-NP, in words (FIG. 5A)” value is recorded as “nearly complete protection”. The inhibition at 10 µM in series [2] (setting [5]) was 70%. As to `COC(=O)C[C@H]1C(C)(C)C(=O)[C@@H]2CC3=C4CC(=O)O[C@@H](c5ccoc5)[C@]4(C)CC[C@@H]3[C@@]1(C)C2=O` [MEXICANOLIDE], the inhibition at 10 µM in series [2] (setting [6]) was 9%. As to `C=C1[C@@H]([C@@]2(C)[C@@H](OC(C)=O)CC(=O)O[C@](C)(COC(C)=O)[C@@H]2C(=O)OC)[C@@H](OC=O)[C@H](OC(=O)[C@H](O)[C@H](C)CC)[C@@]2(C)[C@H](c3ccoc3)CC(=O)[C@]12O` [PRIEURIANIN], in series [2] (18 h, read-out: % Protection vs 3-NP), the inhibition at 10 µM stood at 6%. Take `COC1=C[C@@H](C)[C@@H]2C[C@H]3OC(=O)C[C@H]4C(C)=C(OC)C(=O)[C@H]([C@@]2(C)C1=O)[C@@]34C` [QUASSIN]: the inhibition at 10 µM in series [2] (setting [6]) came to 8%. With `Oc1ccc(C=Cc2cc(O)cc(O)c2)cc1` [Resveratrol, reference compound], the “protection from HIV-1 Tat toxicity, in words (FIG. 4B)” value in series [3] is reported as “protected hippocampal neurons from Tat toxicity”. Moreover, in series [2] (setting [8]), the “protection from oxidative damage elicited by 3-NP, in words (FIG. 4A)” value is “significantly protected”. For the compound `CCC(C)C(=O)O[C@@H]1C[C@@]2(C)[C@H](c3ccoc3)OC(=O)CC23OC2(C)O[C@]14[C@]1(C)[C@@H](CC(=O)OC)C5(C)CC1(O)[C@](O)(C5OC(=O)C1(C)OC1C)[C@@H](OC(C)=O)[C@]34O2` (stereo partly shown) [UTILIN], in series [2] (setting [6]), the inhibition at 10 µM is 16%. Regarding `C=C1C2CC[C@@]3(C)[C@H](c4ccoc4)OC(=O)C[C@]13OC1CC(=O)C(C)(C)C(CC(=O)OC)C12C` (stereo partly shown) [[…], METHYL ESTER], the “protection against 3-NP (FIG. 5)” value in series [2] (3 mM 3-NP) is given as “about 50%”. The inhibition at 10 µM in series [2] (setting [5]) and in series [2] (setting [6]) was 33% in each case. `C[C@@H]([C@H]1OC(C)(C)[C@@H](O)[C@H]1O)[C@@H]1CC[C@]2(C)C3=CC[C@H]4C(C)(C)C(=O)CC[C@]4(C)[C@H]3CC[C@@]12C` [odoratone]: the “protection against 3-NP (FIG. 5)” value in series [2] (3 mM 3-NP) is listed as 60-70%. With KHAYANTHONE, the “% Protection vs 3-NP” value in series [2] (setting [7]) was 36%. With KHAYASIN C, in series [2] (setting [7]), the “% Protection vs 3-NP” value was 13%.

These data come from patent publication US9289412B2, “Role of limonoid compounds as neuroprotective agents” (The Johns Hopkins University, priority 2006, dated 2016).
